Tests used:
[1] = target: T1, SIRT1 (Homo sapiens, UniProt Q96EB6); experiment: Modified Fluor de Lys fluorescence-based assay, SIRT1; format: biochemical; conditions: from 200 μM; p53 379-382 AMC substrate, NAD+
T1 construct: host or cells: E. coli
Protocol: The newly synthesized compounds 4a–n were tested to determine their effects against acetylation and methylation epigenetic targets. First, 4a–n were screened in vitro against the two HAT enzymes p300 and PCAF. […] To determine the activity against SIRT1 and -2, 4a–n were tested starting from 200 μM solutions using a modified Fluor de Lys fluorescence-based assay with amino acids 379–382 (Arg-His-Lys-Lys(Ac)) of human p53 conjugated with aminomethylcoumarin as substrate and NAD^+ as co-substrate. […] Furthermore, 4a–n were tested against a human five-membered Polycomb repressive complex 2 (PRC2) containing EZH2, embryonic ectoderm development (EED), suppressor of zeste 12 (SUZ12), RbAp48, and adipocyte enhancer-binding protein (AEBP2), to assess their capability to inhibit the catalytic unit EZH2.
The SIRT inhibition assay was performed using human recombinant SIRT1 and SIRT2 produced in E. coli. Compounds were tested using a modified Fluor de Lys fluorescence-based assay kit based on the method described in the BioMol product sheet (AK-555, AK-556, Milan, Italy). […] The second stage is initiated by the addition of the Developer II (KI176), including nicotinamide (NAM), nicotinamide that stops the SIRT1/2 activity, and the fluorescent signal is produced. The fluorescence was measured on a fluorometric reader (Infinite 200 TECAN, Männedorf, Switzerland) with excitation set at 360 nm and emission detection set at 460 nm.

[2] = target: T2, CARM1 (Homo sapiens, UniProt Q86X55); experiment: CARM1 assay (histone H3, 3H-SAM); format: biochemical
T2 sequence (Q86X55 1-608): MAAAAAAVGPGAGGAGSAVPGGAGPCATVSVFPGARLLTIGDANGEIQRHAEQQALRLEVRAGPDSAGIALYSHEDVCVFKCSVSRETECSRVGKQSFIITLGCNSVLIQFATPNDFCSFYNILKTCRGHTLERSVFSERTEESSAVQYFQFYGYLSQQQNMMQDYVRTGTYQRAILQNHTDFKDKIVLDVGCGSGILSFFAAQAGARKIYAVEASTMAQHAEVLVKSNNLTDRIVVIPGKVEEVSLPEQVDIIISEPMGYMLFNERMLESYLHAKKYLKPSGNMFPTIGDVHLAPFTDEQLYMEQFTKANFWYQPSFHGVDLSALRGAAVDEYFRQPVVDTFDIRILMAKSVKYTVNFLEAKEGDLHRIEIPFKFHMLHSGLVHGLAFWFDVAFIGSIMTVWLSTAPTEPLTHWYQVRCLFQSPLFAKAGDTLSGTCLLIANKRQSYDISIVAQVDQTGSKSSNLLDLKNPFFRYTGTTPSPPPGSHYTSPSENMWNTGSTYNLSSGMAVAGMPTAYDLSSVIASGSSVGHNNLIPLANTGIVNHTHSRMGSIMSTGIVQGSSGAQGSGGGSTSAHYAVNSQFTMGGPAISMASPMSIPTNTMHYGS
Protocol: Histone H3 (5 μM) was added in freshly prepared reaction buffer (50 mM Tris-HCl (pH 8.5), 5 mM MgCl2, 50 mM NaCl, 0.01% Brij35, 1 mM DTT, 1% DMSO). CARM1 was delivered into the substrate solution and the mixture was mixed gently. Afterwards, the tested compounds dissolved in DMSO were delivered into the enzyme/substrate reaction mixture by using Acoustic Technology (Echo 550, LabCyte Inc. Sunnyvale, CA) in nanoliter range, and 1 µM ^3H-SAM was also added into the reaction mixture to initiate the reaction. The reaction mixture was incubated for 1 h at 30 °C and then it was delivered to filter-paper for detection. The data were analyzed using Excel and GraphPad Prism software for IC50 curve fits. The experiments were performed in triplicate.

[3] = system: U937 cells; experiment: Cell cycle and apoptosis (sub-G1) analysis by FACS in U937 cells; format: cell-based, human; conditions: 5 μM, 30 h
Protocol: (§1) Compounds 4a–n were tested at 5 μM for 30 h in NB4 […] and U937 AML cells among hematological cancers, and in MCF-7 breast cancer and SH-SY5Y neuroblastoma cells among solid cancers, to determine their effects in cell cycle and apoptosis induction.
(§2) In the same cell lines, the induction of apoptosis has been evaluated through the percentage of the sub-G1 peaks.
(§3) For colorimetric exclusion, the cells (2 × 10^5 cells/mL) were plated in multiwells in triplicate. After stimulations at different times and concentrations, cells were diluted in the ratio 1:1 in Trypan Blue (Sigma) and counted with an optical microscope. For cell cycle analyses, cells were plated (2 × 10^5 cells/mL) and were harvested, centrifuged at 1200 rpm for 5 min and resuspended in 500 μL of a hypotonic solution containing 1× PBS, Sodium Citrate 0.1%, 0.1% NP-40, RNAase A and […] Propidium Iodide (PI). After 30 min at room temperature (RT) in the dark, samples were acquired by FACS-Calibur (BD Bioscences, San Jose, CA, USA) using CellQuest software (BD Biosciences). The percentage in different phases of the cell cycle was determined by ModFit LT V3 software (Verity). All experiments were performed in triplicate. Cell death was measured as percentage of cells in sub-G1 phase as in [30].

[4] = system: MCF-7 cells; experiment: Cell cycle and apoptosis (sub-G1) analysis by FACS in MCF-7 cells; format: cell-based, human; conditions: 5 μM, 30 h
Protocol: as §1, §2, §3

[5] = system: EZH2; experiment: Western blot of H3K27me3 (EZH2) in MCF-7 cells; format: cell-based, human; conditions: 5 μM, 30 h
Protocol: In MCF-7 cells, the levels of acetyl-H3, acetyl-H4, H3K27me3, and H3R17me2 were detected by western blot analyses as functional tests for p300 (acH3 and acH4), EZH2 (H3K27me3) and CARM1 (H3R17me2) inhibition in cells, respectively (Figure 5).
(§4) The procedures were performed as described in [30, 31]. Primary antibodies used were: Ac-H3 (Millipore, Milan, Italy); Ac-H4 (Millipore, Milan, Italy); Ac-H3K9-14 (Diagenode, Ougrée, Belgium); Ac-α-tubulin (Sigma-Aldrich), H3K27me3 (Diagenode); H3R17me2 (Diagenode); EZH2 (Abcam, Cambridge, UK). H3 (Sigma-Aldrich), H4 (Abcam), GAPDH (Sigma) and ERKs (Santa Cruz, Biotechnology, TX, USA) were used to normalize the total protein extracts (see also Supplementary Material).

[6] = system: SH-SY5Y cells; experiment: Cell cycle and apoptosis (sub-G1) analysis by FACS in SH-SY5Y cells; format: cell-based, human; conditions: 5 μM, 30 h
Protocol: as §1, §2, §3

[7] = system: CARM1; experiment: Western blot of H3R17me2 (CARM1 inhibition) in NB4 cells; format: cell-based, human; conditions: 5 μM, 30 h
Description: In NB4 cells, the levels of acetyl-H3 (acH3) and acetyl-H4 (acH4) as well as those of acetyl-H3K9/14 (AcH3K9/14, see Supplementary material) and of the non-histone substrate acetyl-α-tubulin (Ac-Tubulin) were detected as an index of p300 inhibition (Figure 4). In the same cell line, the levels of H3K27me3, histone mark of the EZH2 catalytic activity (Figure 4), as well as the level of the EZH2 expression (see Supplementary material) have been determined. Last, the amount of H3R17me2, the functional read-out of CARM1 inhibition, was determined (Figure 4).
as §4

T1 sequence (Q96EB6 whole entry): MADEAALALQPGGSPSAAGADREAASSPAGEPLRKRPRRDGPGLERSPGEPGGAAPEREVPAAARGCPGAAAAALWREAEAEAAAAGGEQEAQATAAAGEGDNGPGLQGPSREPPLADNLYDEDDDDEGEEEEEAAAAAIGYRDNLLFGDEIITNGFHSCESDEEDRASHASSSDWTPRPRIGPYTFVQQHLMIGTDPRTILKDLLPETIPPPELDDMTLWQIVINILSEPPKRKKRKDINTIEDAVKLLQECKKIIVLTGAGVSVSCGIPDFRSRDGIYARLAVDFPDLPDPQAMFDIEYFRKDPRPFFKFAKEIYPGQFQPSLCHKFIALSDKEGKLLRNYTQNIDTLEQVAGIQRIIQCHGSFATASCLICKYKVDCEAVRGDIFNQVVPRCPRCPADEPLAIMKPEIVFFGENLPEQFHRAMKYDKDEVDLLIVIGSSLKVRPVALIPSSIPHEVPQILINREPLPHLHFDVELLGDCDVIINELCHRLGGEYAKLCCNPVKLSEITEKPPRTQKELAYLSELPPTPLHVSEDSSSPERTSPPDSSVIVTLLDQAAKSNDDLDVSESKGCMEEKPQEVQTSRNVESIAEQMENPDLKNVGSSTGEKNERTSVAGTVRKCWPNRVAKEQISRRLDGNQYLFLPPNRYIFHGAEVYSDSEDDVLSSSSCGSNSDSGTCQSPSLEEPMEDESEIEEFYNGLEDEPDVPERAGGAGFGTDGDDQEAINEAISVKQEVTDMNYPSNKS

Compound | IC50 [1] [µM] | IC50 [2] [µM] | effect on cell cycle phases [3] | cell cycle: block in G1/S phase with almost total absence of cells in the G2/M phase [4] | cell cycle: block in G1/S phase with almost total absence of cells in the S phase [4] | levels of H3K27me3 [5] | effect on cell cycle phases [6] | induction of apoptosis, % sub-G1 peaks [6] | levels of H3R17me2 [7] | induction of apoptosis, % sub-G1 peaks [4]
O=C1/C(=C/c2ccccc2Br)CN(C(=O)C=Cc2ccccc2)C/C1=C\c1ccccc1Br [Compound 4n, 3,5-Bis((E)-2-bromobenzylidene)-1-cinnamoylpiperidin-4-one] | > 200 | 7.14 ± 2.54 | arrested the cell cycle at the G1/S phase | almost total absence of cells | almost total absence of cells | reduction of the H3K27me3 levels |  |  |  | 
O=C1/C(=C/c2ccccc2Br)CN(C(=O)CCc2ccccc2)C/C1=C\c1ccccc1Br [Compound 4m, 3,5-Bis((E)-2-bromobenzylidene)-1-(3-phenylpropanoyl)piperidin-4-one] | > 200 | 0.79 ± 0.06 | block in G2/M phase | almost total absence of cells |  | reduction of the H3K27me3 levels | arrest in the G1/S phase | 17% | most effective | 
O=C1/C(=C/c2ccccc2Br)CN(C(=O)Cc2ccccc2)C/C1=C\c1ccccc1Br [Compound 4l, 3,5-Bis((E)-2-bromobenzylidene)-1-(2-phenylacetyl)piperidin-4-one] | > 200 | 0.43 ± 0.12 | block in G2/M phase |  | almost total absence of cells |  | arrest in the G1/S phase |  | most effective | 
O=C1/C(=C/c2ccccc2Br)CN(CCc2ccccc2)C/C1=C\c1ccccc1Br [Compound 4f, 3,5-Bis((E)-2-bromobenzylidene)-1-phenethylpiperidin-4-one] | > 200 | 18.5 ± 0.9 | block in G2/M phase |  |  |  |  |  |  | 
O=C1/C(=C/c2ccccc2Br)CN(Cc2ccccc2)C/C1=C\c1ccccc1Br [Compound 4e, 1-benzyl-3,5-bis((E)-2-bromobenzylidene)piperidin-4-one] | > 200 | 6.5 ± 0.86 |  | almost total absence of cells |  | reduction of the H3K27me3 levels |  |  |  | 
O=C1/C(=C/c2ccccc2Br)CN(CCCc2ccccc2)C/C1=C\c1ccccc1Br [Compound 4g, 3,5-Bis((E)-2-bromobenzylidene)-1-(3-phenylpropyl)piperidin-4-one] | > 200 | 12.6 ± 2.6 | arrested the cell cycle at the G1/S phase |  |  |  |  |  |  | 
O=C1/C(=C/c2ccccc2Br)CN(CC(=O)c2ccccc2)C/C1=C\c1ccccc1Br [Compound 4h, 3,5-Bis((E)-2-bromobenzylidene)-1-(2-oxo-2-phenylethyl)piperidin-4-one] | > 200 | 5.52 ± 0.78 |  |  |  | reduction of the H3K27me3 levels | arrest in the G1/S phase | less than 20% | most effective | around 25%
O=C1/C(=C/c2ccccc2Br)CN(C(=O)c2ccccc2)C/C1=C\c1ccccc1Br [Compound 4k, 1-Benzoyl-3,5-bis((E)-2-bromobenzylidene)piperidin-4-one] | > 200 | 1.33 ± 0.14 |  |  | almost total absence of cells |  |  |  |  | 
O=C1/C(=C/c2ccccc2Br)CN(CCCC(=O)c2ccccc2)C/C1=C\c1ccccc1Br [Compound 4j, 3,5-Bis((E)-2-bromobenzylidene)-1-(4-oxo-4-phenylbutyl)piperidin-4-one] | > 200 | 4.8 ± 1.72 |  | almost total absence of cells |  | reduction of the H3K27me3 levels | arrest in the G1/S phase |  |  | 

From article PMC7397249, “Properly Substituted Cyclic Bis-(2-bromobenzylidene) Compounds Behaved as Dual p300/CARM1 Inhibitors and Induced Apoptosis in Cancer Cells” (Molecules, 2020)
